The record followed here is ChEMBL document CHEMBL5665443, “Enzyme Inhibitor Single Concentration assay results for EUbOPEN Chemogenomics Library” (2024).

The structures appear in SMILES notation.

Common to all, as to conditions: Compound Concentration 10.0 uM, Hit No
The target in experiment [1] is Methyl-CpG-binding domain protein 4 (Homo sapiens) (UniProt O95243).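 Further: MBD4 activity read as fluorescence at 594 nm from cleavage and release of a quenched duplex DNA oligonucleotide, with APE1 coupled to incise the strand and raise turnover.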
Description: Inhibition of MBD4 by quantifying inhibition of MBD4-mediated cleavage and dissociation of quenched duplex DNA oligonucleotides, measured as fluorescence at 594 nm. To generate a functional strand incision and increase turn-over this assay is coupled to APE1.
For experiment [2], the target named is DNA-3-methyladenine glycosylase (Homo sapiens) (UniProt P29372).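 Further: enzyme assay where MPG cuts a quenched duplex DNA oligonucleotide probe, paired with APE1 for strand incision and turnover, read as fluorescence at 594 nm.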
Description: Inhibition of MPG by quantifying inhibition of MPG-mediated cleavage and dissociation of quenched duplex DNA oligonucleotides, measured as fluorescence at 594 nm. To generate a functional strand incision and increase turn-over this assay is coupled to APE1.
Experiment [3] deals with T1, Adenine DNA glycosylase (Homo sapiens) (UniProt Q9UIF7).
T1 sequence (whole entry): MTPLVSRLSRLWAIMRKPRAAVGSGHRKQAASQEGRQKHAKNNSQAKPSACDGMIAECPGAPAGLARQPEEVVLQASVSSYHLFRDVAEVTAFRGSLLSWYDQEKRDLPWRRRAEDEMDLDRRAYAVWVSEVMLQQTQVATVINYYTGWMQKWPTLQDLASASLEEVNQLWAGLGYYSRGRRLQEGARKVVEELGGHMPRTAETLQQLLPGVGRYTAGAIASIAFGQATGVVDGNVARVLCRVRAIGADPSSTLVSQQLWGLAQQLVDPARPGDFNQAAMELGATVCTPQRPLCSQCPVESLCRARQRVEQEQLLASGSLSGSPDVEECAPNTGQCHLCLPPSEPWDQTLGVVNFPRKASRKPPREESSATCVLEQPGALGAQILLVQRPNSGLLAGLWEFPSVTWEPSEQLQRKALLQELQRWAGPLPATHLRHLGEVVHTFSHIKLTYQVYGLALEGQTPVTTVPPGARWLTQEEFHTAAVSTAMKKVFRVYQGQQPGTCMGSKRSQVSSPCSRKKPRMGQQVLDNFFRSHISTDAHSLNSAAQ
Description: Inhibition of MUTYH by quantifying inhibition of MUTYH-mediated cleavage and dissociation of quenched duplex DNA oligonucleotides, measured as fluorescence at 594 nm. To generate a functional strand incision and increase turn-over this assay is coupled to APE1.

Experiment [4] deals with Endonuclease 8-like 1 (Homo sapiens) (UniProt Q96FI4).
Description: Inhibition of NEIL1 by quantifying inhibition of NEIL1-mediated cleavage and dissociation of quenched duplex DNA oligonucleotides, measured as fluorescence at 594 nm.
For experiment [5], the target named is T2, Endonuclease 8-like 2 (Homo sapiens) (UniProt Q969S2).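 Further: fluorescence at 594 nm reports NEIL2 cutting and release of a quenched double-stranded DNA oligo substrate, reduced signal read as inhibition.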
T2 sequence (whole entry): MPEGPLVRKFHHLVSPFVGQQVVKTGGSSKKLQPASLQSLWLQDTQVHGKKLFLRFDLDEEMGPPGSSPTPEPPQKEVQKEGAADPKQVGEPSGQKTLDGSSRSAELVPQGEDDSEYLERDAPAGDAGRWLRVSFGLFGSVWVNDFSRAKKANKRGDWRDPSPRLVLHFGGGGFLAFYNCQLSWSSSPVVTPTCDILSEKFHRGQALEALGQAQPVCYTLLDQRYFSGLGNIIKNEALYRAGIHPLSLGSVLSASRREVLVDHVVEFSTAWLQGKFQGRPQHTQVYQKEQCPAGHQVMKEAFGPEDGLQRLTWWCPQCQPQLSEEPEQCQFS
Description: Inhibition of NEIL2 by quantifying inhibition of NEIL2-mediated cleavage and dissociation of quenched duplex DNA oligonucleotides, measured as fluorescence at 594 nm.

Experiment [6] addresses T3, Endonuclease III-like protein 1 (Homo sapiens) (UniProt P78549).
T3 sequence (whole entry): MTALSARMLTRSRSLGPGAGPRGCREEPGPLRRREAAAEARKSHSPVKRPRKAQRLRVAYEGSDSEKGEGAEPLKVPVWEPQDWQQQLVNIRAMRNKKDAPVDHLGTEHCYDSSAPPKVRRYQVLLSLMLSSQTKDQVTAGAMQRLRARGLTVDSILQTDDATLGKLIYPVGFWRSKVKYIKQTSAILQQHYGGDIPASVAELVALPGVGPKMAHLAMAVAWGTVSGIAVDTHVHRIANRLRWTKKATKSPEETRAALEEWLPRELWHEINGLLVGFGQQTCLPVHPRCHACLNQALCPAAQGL
Description: Inhibition of NTHL1 by quantifying inhibition of NTHL1-mediated cleavage and dissociation of quenched duplex DNA oligonucleotides, measured as fluorescence at 594 nm.

The target in experiment [7] is N-glycosylase/DNA lyase (Homo sapiens) (UniProt O15527).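 Further: OGG1 cleavage of a quenched duplex DNA oligonucleotide, coupled to APE1 for strand incision, read as fluorescence at 594 nm.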
Description: Inhibition of OGG1 by quantifying inhibition of OGG1-mediated cleavage and dissociation of quenched duplex DNA oligonucleotides, measured as fluorescence at 594 nm. To generate a functional strand incision and increase turn-over this assay is coupled to APE1.
In experiment [8] the target is T4, Single-strand selective monofunctional uracil DNA glycosylase (Homo sapiens) (UniProt Q53HV7).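 Further: enzymatic SMUG1 assay coupled with APE1, reading fluorescence at 594 nm released when a quenched double-stranded DNA oligonucleotide substrate is cleaved and separated.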
T4 sequence (whole entry): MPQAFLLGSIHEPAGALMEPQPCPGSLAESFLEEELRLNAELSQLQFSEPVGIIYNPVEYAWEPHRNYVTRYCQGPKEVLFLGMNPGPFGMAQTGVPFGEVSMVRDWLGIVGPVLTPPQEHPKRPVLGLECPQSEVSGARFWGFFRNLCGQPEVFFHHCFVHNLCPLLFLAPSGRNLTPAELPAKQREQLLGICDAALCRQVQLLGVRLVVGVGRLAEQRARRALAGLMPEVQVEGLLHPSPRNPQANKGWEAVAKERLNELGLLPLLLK
Description: Inhibition of SMUG1 by quantifying inhibition of SMUG1-mediated cleavage and dissociation of quenched duplex DNA oligonucleotides, measured as fluorescence at 594 nm. To generate a functional strand incision and increase turn-over this assay is coupled to APE1.

The target of experiment [9] is G/T mismatch-specific thymine DNA glycosylase (Homo sapiens) (UniProt Q13569).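 Further: human TDG cleavage of quenched duplex DNA oligonucleotides coupled to APE1, strand release read as fluorescence at 594 nm, inhibition of TDG activity.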
Description: Inhibition of TDG by quantifying inhibition of TDG-mediated cleavage and dissociation of quenched duplex DNA oligonucleotides, measured as fluorescence at 594 nm. To generate a functional strand incision and increase turn-over this assay is coupled to APE1.
In experiment [10] the target is Uracil-DNA glycosylase (Homo sapiens) (UniProt P13051).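 Further: UNG excision on a quenched double-stranded DNA oligo probe, with APE1 added for strand incision and turnover, read as fluorescence at 594 nm as strands separate.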
Sequence of Uracil-DNA glycosylase (Homo sapiens) (P13051 whole entry): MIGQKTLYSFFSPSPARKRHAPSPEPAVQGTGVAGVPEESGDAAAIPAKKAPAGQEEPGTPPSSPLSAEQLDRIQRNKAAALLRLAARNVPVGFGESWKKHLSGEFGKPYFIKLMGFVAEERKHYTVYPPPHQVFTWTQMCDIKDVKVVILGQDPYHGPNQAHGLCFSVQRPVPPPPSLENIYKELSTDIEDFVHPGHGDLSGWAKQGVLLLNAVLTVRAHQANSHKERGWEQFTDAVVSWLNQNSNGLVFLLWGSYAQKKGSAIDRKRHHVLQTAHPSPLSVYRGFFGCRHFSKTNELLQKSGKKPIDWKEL
Description: Inhibition of UNG by quantifying inhibition of UNG-mediated cleavage and dissociation of quenched duplex DNA oligonucleotides, measured as fluorescence at 594 nm. To generate a functional strand incision and increase turn-over this assay is coupled to APE1.

Sequence of Methyl-CpG-binding domain protein 4 (Homo sapiens) (O95243 whole entry, the tested form may be a part): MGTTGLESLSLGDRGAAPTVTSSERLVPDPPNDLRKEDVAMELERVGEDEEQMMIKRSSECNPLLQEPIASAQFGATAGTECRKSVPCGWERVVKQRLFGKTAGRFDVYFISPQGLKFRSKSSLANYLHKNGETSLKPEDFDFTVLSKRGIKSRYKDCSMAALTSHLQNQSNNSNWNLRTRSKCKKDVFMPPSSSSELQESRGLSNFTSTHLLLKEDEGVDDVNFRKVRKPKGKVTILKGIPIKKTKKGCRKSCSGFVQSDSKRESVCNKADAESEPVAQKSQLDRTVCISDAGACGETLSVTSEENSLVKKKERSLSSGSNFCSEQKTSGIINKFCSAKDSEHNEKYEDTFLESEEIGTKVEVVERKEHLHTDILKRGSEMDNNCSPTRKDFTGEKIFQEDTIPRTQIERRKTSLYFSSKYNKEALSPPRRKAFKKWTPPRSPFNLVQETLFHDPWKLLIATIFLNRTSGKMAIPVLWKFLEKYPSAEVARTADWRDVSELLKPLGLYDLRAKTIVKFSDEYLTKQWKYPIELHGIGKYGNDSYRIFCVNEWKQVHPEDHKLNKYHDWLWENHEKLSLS
Sequence of DNA-3-methyladenine glycosylase (Homo sapiens) (P29372 whole entry): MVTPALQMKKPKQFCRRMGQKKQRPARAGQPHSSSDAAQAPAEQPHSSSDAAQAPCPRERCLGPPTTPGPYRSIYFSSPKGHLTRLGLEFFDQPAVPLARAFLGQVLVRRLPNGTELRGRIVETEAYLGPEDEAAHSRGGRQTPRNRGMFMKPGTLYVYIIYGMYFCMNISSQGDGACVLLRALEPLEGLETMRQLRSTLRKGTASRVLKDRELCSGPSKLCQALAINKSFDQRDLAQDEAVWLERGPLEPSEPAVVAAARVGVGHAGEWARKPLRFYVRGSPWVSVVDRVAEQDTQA
Sequence of N-glycosylase/DNA lyase (Homo sapiens) (O15527 whole entry): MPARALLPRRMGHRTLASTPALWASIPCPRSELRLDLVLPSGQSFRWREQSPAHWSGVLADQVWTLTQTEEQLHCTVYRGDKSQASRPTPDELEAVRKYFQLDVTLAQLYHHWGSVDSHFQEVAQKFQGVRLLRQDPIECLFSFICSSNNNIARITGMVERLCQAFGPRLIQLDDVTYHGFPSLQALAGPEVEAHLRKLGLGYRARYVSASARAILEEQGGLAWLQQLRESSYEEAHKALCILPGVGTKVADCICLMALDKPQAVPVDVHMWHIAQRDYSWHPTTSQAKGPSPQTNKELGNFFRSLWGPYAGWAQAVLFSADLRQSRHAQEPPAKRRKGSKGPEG
Sequence of Endonuclease 8-like 1 (Homo sapiens) (Q96FI4 whole entry): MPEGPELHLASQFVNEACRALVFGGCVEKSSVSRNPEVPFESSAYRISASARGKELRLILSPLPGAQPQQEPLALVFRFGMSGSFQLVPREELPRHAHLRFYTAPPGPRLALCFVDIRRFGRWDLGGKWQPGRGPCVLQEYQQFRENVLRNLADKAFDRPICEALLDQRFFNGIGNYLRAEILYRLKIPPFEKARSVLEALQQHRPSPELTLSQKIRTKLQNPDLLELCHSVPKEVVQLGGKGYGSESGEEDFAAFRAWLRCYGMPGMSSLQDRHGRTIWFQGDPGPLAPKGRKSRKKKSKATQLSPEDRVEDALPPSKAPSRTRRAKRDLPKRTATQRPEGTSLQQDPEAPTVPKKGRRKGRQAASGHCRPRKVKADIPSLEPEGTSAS
Sequence of G/T mismatch-specific thymine DNA glycosylase (Homo sapiens) (Q13569 whole entry): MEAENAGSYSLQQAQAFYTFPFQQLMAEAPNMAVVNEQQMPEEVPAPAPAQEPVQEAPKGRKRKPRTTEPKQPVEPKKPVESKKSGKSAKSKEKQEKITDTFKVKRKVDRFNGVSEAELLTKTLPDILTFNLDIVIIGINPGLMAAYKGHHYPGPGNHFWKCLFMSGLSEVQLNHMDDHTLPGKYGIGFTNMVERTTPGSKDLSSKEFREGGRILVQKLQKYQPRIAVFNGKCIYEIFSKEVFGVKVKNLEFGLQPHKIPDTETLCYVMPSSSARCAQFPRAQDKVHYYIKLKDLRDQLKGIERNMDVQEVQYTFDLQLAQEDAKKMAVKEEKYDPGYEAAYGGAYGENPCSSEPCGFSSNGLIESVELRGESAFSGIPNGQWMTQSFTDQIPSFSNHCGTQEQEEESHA

In general, inhibition refers to the drop in the measured response relative to a control, in per cent. `CN[C@@H]1CCc2[nH]c3ccc(C(N)=O)cc3c2C1`: the inhibition was 14.9% in experiment [1]; -3.1% in experiment [2]; -4.97% in [3]; 8.84% in experiment [4]; -0.483% in [5]; -9.8% in [6]. The inhibition was 3.36% in experiment [7], -7.16% in experiment [8], 16.1% in experiment [9] and -5.51% in [10].
With `CCCC(=O)N[C@@H](Cc1ccc(O)cc1)C(=O)NCCCCCCCNCCCCN`, the inhibition in experiment [1] was 20.4%; in experiment [2], 2.86%; in [3], -4.41%; in [4], 4.46%; in experiment [5], -1.62%; in experiment [6], -3.56%. The inhibition in experiment [7] was -0.213%; in experiment [8], -0.749%; in [9], 12.1%; in [10], -4.14%.
With `O=C(Nc1ccc(S(=O)(=O)Nc2nccs2)cc1)C(c1ccccc1)c1ccccc1`, the inhibition in [1] is 66%; in experiment [2], 34%; in [3], 80.2%; in experiment [4], -2.51%; in experiment [5], -1.11%; in experiment [6], 17.9%. Further, the inhibition is -6.39% in experiment [7], 7.67% in [8], 52.5% in [9] and 3.78% in experiment [10].
Turning to `NCCc1c[nH]cn1`, the inhibition in experiment [1] was 10.4%; in [2], -7.46%; in experiment [3], 10.5%; in [4], -0.352%; in experiment [5] it was -0.234%; in experiment [6], 15.1%. Besides, the inhibition is 0.419% in experiment [7], -0.0333% in experiment [8], 7.61% in experiment [9] and -7.79% in experiment [10].
Turning to `N#Cc1ccc(NC(=O)Nc2ccccc2Br)c2nn[nH]c12`, the inhibition was 21% in experiment [1]; -2.94% in experiment [2]; 35.7% in experiment [3]; 0.686% in experiment [4]; 1.51% in experiment [5]; 9.25% in experiment [6]. Moreover, the inhibition in experiment [7] is -1.34%; in experiment [8] it was 7.57%; in experiment [9], 26.3%; in experiment [10] it was -8.36%.
For `CC(C)(C)C1CCc2c(sc(NC(=O)c3ccco3)c2C(=O)O)C1` (stereo not given), the inhibition in experiment [1] is 32.2%; in experiment [2], -0.565%; in [3], 30.5%; in [4], 4.9%; in experiment [5], 17.7%; in [6], 33.6%. The inhibition was 36.3% in [7], -0.636% in experiment [8], 25.9% in experiment [9] and -0.0242% in experiment [10].
In the case of `CC(=O)Nc1cccc2c1c(Sc1ccc(Cl)cc1)c(C)n2CC(=O)O`, the inhibition was 11.4% in experiment [1]; 5.39% in experiment [2]; 23.9% in [3]; -0.204% in experiment [4]; 5.76% in [5]; 6.32% in experiment [6]. Further, the inhibition in experiment [7] is 3.49%; in [8], -1.39%; in [9], 16.4%; in experiment [10], -0.965%.
Turning to `CN(C)C(=O)c1cc2cnc(Nc3ccc(N4CCNCC4)cn3)nc2n1C1CCCC1`, the inhibition in [1] is 24.6%; in experiment [2] it was 59.5%; in experiment [3] it was 16.4%; in experiment [4], 3.31%; in experiment [5], -0.842%; in experiment [6] it was -3.4%. Further, the inhibition is 4.33% in experiment [7], 21.9% in experiment [8], 57.4% in experiment [9] and 8.98% in [10].
`O=c1ccc2c(OCCCCc3ccccc3)c3ccoc3cc2o1`: the inhibition is -4.82% in [1]; 2.27% in experiment [2]; 4.38% in experiment [3]; 4.31% in experiment [4]; 2.71% in experiment [5]; 7.17% in experiment [6]. In addition, the inhibition in experiment [7] was 0.716%; in [8], 0.0989%; in experiment [9], 5.01%; in [10], -2.86%.
